Test [1] has as its system Pfeiffer (EZH2 A677G). Briefly: In vitro 50% growth inhibition (GI50), MTT/CCK8, Pfeiffer cells. Format: cell-based, Human. Conditions: for growth inhibitory activity / GI50 level against Pfeiffer, in words: EZH2 A677G mutant cells Pfeiffer; for GI50: Homo sapiens, Pfeiffer, 240 h, Drug treatment for 10 days. From the text:
(§1) In the present invention, a representative tumor cell line was selected to determine the cell growth inhibition activity of the present compound. Cell culture conditions and methods were in accordance with the requirements for each cell lines. The cells were subcultured in vitro for less than 3 generations each time, and as required, monoclone purification and identification of cell lines could be carried out.
(§2) The cell culture media used were RPMI1640 (Gibco) comprising 5-20% of fetal bovine serum (Gibco), 1% of double-antibiotic and 2 mM of glutamine.
(§3) Suspension culture cells were collected by centrifugation (1700 rpm, 3 minutes), and the supernatant was discarded and the cells were counted. According to each cell growth cycle, different concentrations of cells were prepared (1-10×10^4 cells per ml) and added to 96-well plates (Corning) with 100 μl per well, and then incubated overnight at 37° C., 5% CO2. The next day, the test compound was added to the cultured cells (2 wells in parallel). The final concentration of the solvent was less than 1/1,000. The cells were further cultured for 6 to 12 days and assayed by MTT.
(§4) The compound was stored at a concentration of 10 mM at −20° C. and diluted to two-fold or 10-fold series prior to use.
(§5) For the suspension culture cells, CCK8 was directly added to 10% of the final concentration. The cells were continually incubated for […].
(§6) The experiments were repeated 3 times and a statistical analysis of data was conducted.

For test [2], the system named is Karpas-422 (EZH2 Y641N). In words: In vitro 50% growth inhibition (GI50), MTT/CCK8, Karpas-422 cells. The format is cell-based. Particulars: Homo sapiens, KARPAS-422, 144 h; Drug treatment for 6 days.
Description: as §1, §2, §3, §4, §5, §6

For test [3], the system named is SU-DHL-8 (EZH2 WT). In words: In vitro 50% growth inhibition (GI50), MTT/CCK8, SU-DHL-8 cells. Format: cell-based. Particulars: Homo sapiens, SU-DHL-8, 144 h; Drug treatment for 6 days.
Description: as §1, §2, §3, §4, §5, §6

The structures appear in SMILES notation.

As a reminder, the GI50 is the concentration giving 50% growth inhibition. Read a low GI50 as more potent growth inhibition. In the case of `C=CC(=O)N1CCC(N(CC)c2cc(-c3ccc(CN4CCN(C5CCOCC5)CC4)cc3)cc(C(=O)NCc3c(C)cc(C)[nH]c3=O)c2C)CC1` [Example 89, N-(4,6-dimethyl-2-oxo-1,2-dihydro-pyridin-3-ylmethyl)-5-[(1-acryloyl-piperidin-4-yl)-ethyl-amino]-4-methyl-4′-[4-(tetrahydropyran-4-yl)-piperazin-1-ylmethyl]-[1,1′-biphenyl]-3-carboxamide], in test [1], the “growth inhibitory activity / GI50 level against Pfeiffer, in words” value (“growth inhibitory activity / GI50 level” below) is given as “subnanomolar level”. Besides, the GI50 is under 1 nM in test [1], 10 to 100 nM in test [2] and over 1000 nM in test [3].

On to `C=CC(=O)N1CCC(N(CC)c2cc(-c3ccc(CN4CC(OC)C4)cc3)cc(C(=O)NCc3c(C)cc(C)[nH]c3=O)c2C)CC1` [Example 76, N-(4,6-dimethyl-2-oxo-1,2-dihydro-pyridin-3-ylmethyl)-5-[(1-acryloyl-piperidin-4-yl)-ethyl-amino]-4-methyl-4′-(3-methoxy-1-azetidinylmethyl)-[1,1′-biphenyl]-3-carboxamide], for which the GI50 in test [1] is 1 to 10 nM; in test [2], 10 to 100 nM; in test [3] it was over 1000 nM.

For `C=CC(=O)N1CCC(N(C)c2cc(Br)cc(C(=O)NCc3c(C)cc(C)[nH]c3=O)c2C)C1` (stereo not shown) [Example 10, 3-[(1-acryloyl-pyrrolidin-3-yl)-methyl-amino]-5-bromo-N-(4,6-dimethyl-2-oxo-1,2-dihydro-pyridin-3-ylmethyl)-2methyl-benzamide], the figures for the GI50 in test [1], in test [2] and in test [3] were 10 to 100 nM, over 1000 nM and over 1000 nM, respectively.

Regarding `C=CC(=O)N1CCC(N(CC)c2cc(-c3ccc(CN4CCC(OCCOC)CC4)cc3)cc(C(=O)NCc3c(C)cc(C)[nH]c3=O)c2C)CC1` [Example 77, N-(4,6-dimethyl-2-oxo-1,2-dihydro-pyridin-3-ylmethyl)-5-[(1-acryloyl-piperidin-4-yl)-ethyl-amino]-4-methyl-4′-[4-(2-methoxyethyloxy)-piperidin-1-ylmethyl]-[1,1′-biphenyl]-3-carboxamide], the “growth inhibitory activity / GI50 level” value in test [1] was “subnanomolar level”. In addition, the GI50 in test [1] is under 1 nM; in test [2], 10 to 100 nM; in test [3] it was over 1000 nM.

As for `C=CC(=O)N1CCC(N(CC)c2cc(F)cc(C(=O)NCc3c(C)cc(C)[nH]c3=O)c2C)C1` (stereo not shown) [Example 2, 3-[(1-acryloyl-pyrrolidin-3-yl)-ethyl-amino]-5-fluoro-N-(4,6-dimethyl-2-oxo-1,2-dihydro-pyridin-3-ylmethyl)-2-methyl-benzamide], the GI50 was 10 to 100 nM in test [1], 10 to 100 nM in test [2] and over 1000 nM in test [3].

Turning to `C=CC(=O)N1CCC(N(CC)c2cc(-c3cccc(CN4CCOCC4)c3)cc(C(=O)NCc3c(C)cc(C)[nH]c3=O)c2C)CC1` [Example 70, N-(4,6-dimethyl-2-oxo-1,2-dihydro-pyridin-3-ylmethyl)-5-[(1-acryloyl-piperidin-4-yl)-ethyl-amino]-4-methyl-3′-(morpholin-4-ylmethyl)-[1,1′-biphenyl]-3-carboxamide], the GI50 is 1 to 10 nM in test [1], 10 to 100 nM in test [2] and over 1000 nM in test [3].

Regarding `C=CC(=O)N1CCC(N(CC)c2cc(Cl)cc(C(=O)NCc3c(C)cc(C)[nH]c3=O)c2C)C1` (stereo not shown) [Example 3, 3-[(1-acryloyl-pyrrolidin-3-yl)-ethyl-amino]-5-chloro-N-(4,6-dimethyl-2-oxo-1,2-dihydro-pyridin-3-ylmethyl)-2-methyl-benzamide], the results for the GI50 in test [1], in test [2] and in test [3] were 1 to 10 nM, 10 to 100 nM and over 1000 nM, respectively.

Regarding `C=CC(=O)N1CCC(N(CC)c2cc(-c3cccc(CN4CCOCC4)c3)cc(C(=O)NCc3c(C)cc(C)[nH]c3=O)c2C)C1` (stereo not shown) [Example 30, N-(4,6-dimethyl-2-oxo-1,2-dihydro-pyridin-3-ylmethyl)-5-[(1-acryloyl-pyrrolidin-3-yl)-ethyl-amino]-4-methyl-3′-(morpholin-4-yl)-methyl-[1,1′-biphenyl]-3-carboxamide], the GI50 is 1 to 10 nM in test [1], 10 to 100 nM in test [2] and over 1000 nM in test [3].

`C=CC(=O)N1CCC(N(CC)c2cc(-c3ccc(CN4CCC5(CCCO5)CC4)cc3)cc(C(=O)NCc3c(C)cc(C)[nH]c3=O)c2C)CC1` [Example 87, N-(4,6-dimethyl-2-oxo-1,2-dihydro-pyridin-3-ylmethyl)-5-[(1-acryloyl-piperidin-4-yl)-ethyl-amino]-4-methyl-4′-(1-oxa-8-aza-spiro[4.5]decan-8-ylmethyl)-[1,1′-biphenyl]-3-carboxamide]: the “growth inhibitory activity / GI50 level” value in test [1] was “subnanomolar level”. The GI50 was under 1 nM in test [1], 10 to 100 nM in test [2] and over 1000 nM in test [3].

On to `C=CC(=O)N1CCC(N(CC)c2cc(-c3cccc(CN4CCCN(C)CC4)c3)cc(C(=O)NCc3c(C)cc(C)[nH]c3=O)c2C)CC1` [Example 75, N-(4,6-dimethyl-2-oxo-1,2-dihydro-pyridin-3-ylmethyl)-5-[(1-acryloyl-piperidin-4-yl)-ethyl-amino]-4-methyl-3′-(4-methylhomopiperazin-1-ylmethyl)-[1,1′-biphenyl]-3-carboxamide], for which the GI50 in test [1] is 1 to 10 nM; in test [2], 10 to 100 nM; in test [3], over 1000 nM.

With `C=CC(=O)N1CCC(N(CC)c2cc(-c3ccc(N4CCN(C)CC4)nc3)cc(C(=O)NCc3c(C)cc(C)[nH]c3=O)c2C)C1` (stereo not shown) [Example 53, N-(4,6-dimethyl-2-oxo-1,2-dihydro-pyridin-3-ylmethyl)-3-[(1-acryloyl-pyrrolidin-3-yl)-ethyl-amino]-2-methyl-5-[6-(4-methylpiperazin-1-yl)-pyridin-3-yl]-benzamide], the GI50 in test [1] is 1 to 10 nM; in test [2], 10 to 100 nM; in test [3], over 1000 nM.

Regarding `C=CC(=O)N1CCC(N(CC)c2cc(-c3ccc(CN4CCOCC4)cc3)cc(C(=O)NCc3c(C)cc(C)[nH]c3=O)c2C)C1` (stereo not shown) [Example 20, N-(4,6-dimethyl-2-oxo-1,2-dihydro-pyridin-3-ylmethyl)-5-[(1-acryloyl-pyrrolidin-3-yl)-ethyl-amino]-4′-(morpholin-4-ylmethyl)-4-methyl-biphenyl-3-carboxamide], the GI50 in test [1] was 1 to 10 nM; in test [2], 100 to 1000 nM; in test [3], over 1000 nM.

`C=CC(=O)N1CCC(N(CC)c2cc(-c3ccc(CN4CCC(N5CCOCC5)CC4)cc3)cc(C(=O)NCc3c(C)cc(C)[nH]c3=O)c2C)CC1` [Example 81]: the GI50 in test [1] is 1 to 10 nM; in test [2], 10 to 100 nM; in test [3] it was over 1000 nM.

As for `C=CC(=O)N1CCC(N(CC)c2cc(-c3ccc(OCCN4CCOCC4)cc3)cc(C(=O)NCc3c(C)cc(C)[nH]c3=O)c2C)C1` (stereo not shown) [Example 48, N-(4,6-dimethyl-2-oxo-1,2-dihydro-pyridin-3-ylmethyl)-5-[(1-acryloyl-pyrrolidin-3-yl)-ethyl-amino]-4-methyl-4′-[2-(morpholin-4-yl)-ethoxy]-[1,1′-biphenyl]-3-carboxamide], the GI50 in test [1] is 10 to 100 nM; in test [2] it was 100 to 1000 nM; in test [3] it was over 1000 nM.

Turning to `C=CC(=O)N1CCC(N(CC)c2cc(Br)cc(C(=O)NCc3c(C)cc(C)[nH]c3=O)c2C)C1` (stereo not shown) [Example 1, 3-[(1-acryloyl-pyrrolidin-3-yl)-ethyl-amino]-5-bromo-N-(4,6-dimethyl-2-oxo-1,2-dihydro-pyridin-3-ylmethyl)-2-methyl-benzamide], the GI50 in test [1] was 1 to 10 nM; in test [2] it was 10 to 100 nM; in test [3], over 1000 nM.

As for `C=CC(=O)N1CCC(N(CC)c2cc(-c3cccc(CN4CCCCC4)c3)cc(C(=O)NCc3c(C)cc(C)[nH]c3=O)c2C)C1` (stereo not shown) [Example 31, N-(4,6-dimethyl-2-oxo-1,2-dihydro-pyridin-3-ylmethyl)-5-[(1-acryloyl-pyrrolidin-3-yl)-ethyl-amino]-4-methyl-3′-(piperidin-1-ylmethyl)-[1,1′-biphenyl]-3-carboxamide], the values for the GI50 in test [1], in test [2] and in test [3] were 1 to 10 nM, 10 to 100 nM and over 1000 nM, respectively.

Regarding `C=CC(=O)N1CCC(N(CC)c2cc(-c3ccc(N4CCOCC4)nc3)cc(C(=O)NCc3c(C)cc(C)[nH]c3=O)c2C)C1` (stereo not shown) [Example 52, N-(4,6-dimethyl-2-oxo-1,2-dihydro-pyridin-3-ylmethyl)-3-[(1-acryloyl-pyrrolidin-3-yl)-ethyl-amino]-2-methyl-5-[6-(morpholin-4-yl)-pyridin-3-yl]-benzamide], the GI50 is 1 to 10 nM in test [1], 10 to 100 nM in test [2] and over 1000 nM in test [3].

`C=CC(=O)N1CCC(N(CC)c2cc(-c3ccc(CN4CCC(OC)CC4)cc3)cc(C(=O)NCc3c(C)cc(C)[nH]c3=O)c2C)CC1` [Example 65, N-(4,6-dimethyl-2-oxo-1,2-dihydro-pyridin-3-ylmethyl)-5-[(1-acryloyl-piperidin-4-yl)-ethyl-amino]-4-methyl-4′-(4-methoxypiperidin-1-ylmethyl)-[1,1′-biphenyl]-3-carboxamide]: the “growth inhibitory activity / GI50 level” value in test [1] is “subnanomolar level”. For the same molecule, the GI50 is under 1 nM in test [1], 10 to 100 nM in test [2] and over 1000 nM in test [3].

Values taken from patent publication US11214561B2, “Histone methyltransferase EZH2 inhibitor, preparation method and pharmaceutical use thereof” (ANCUREALL PHARMACEUTICAL (SHANGHAI) CO., LTD., priority 2017, dated 2022).
